Measured values taken from patent publication EP1909102A1, “Method for subgroup analysis in subjects having or being suspected of having inflammatory disease, use of anti-p38mapk antibodies, kits and their use” (c-a-i-r biosciences GmbH, priority 2006, dated 2008).

How the values were obtained:
[1] = system: patients with moderate to severe rheumatoid arthritis; assay: VeRA trial of p38MAPK inhibitor in rheumatoid arthritis patients; assay type: in vivo; details: according to a Monte Carlo simulation of the distribution of the effects
Experimental: It has been claimed that p38MAPK inhibitors were of benefit in treating a large variety of disorders. […] In the VeRA trial, which was conducted to evaluate treatment effects in terms of characteristic manifestations of the disease such as tender joints, swollen joints, morning stiffness and disease activity in a cohort of 315 patients with moderate to severe rheumatoid arthritis, approximately 40 % of patients were responsive to treatment with the p38MAPK inhibitor VX-702, compared to a placebo effect of about 30 %, arguing for a biochemical net response rate of about 28 % according to a Monte Carlo simulation of the distribution of the effects. So far, no explanation for this evident dichotomy between responders and non-responders has been proposed yet.

[2] = system: patients with moderate to severe rheumatoid arthritis; details: VeRA trial, cohort of 315 patients with moderate to severe rheumatoid arthritis; placebo effect about 30 %; cited from earlier work
p38MAPKα = p38MAPKα (Homo sapiens, UniProt Q16539); details: read-out: IC50 for p38MAPKα; disclosed in WO 2004/110990; cited from earlier work
Sequence of p38MAPKα (Q16539 whole entry): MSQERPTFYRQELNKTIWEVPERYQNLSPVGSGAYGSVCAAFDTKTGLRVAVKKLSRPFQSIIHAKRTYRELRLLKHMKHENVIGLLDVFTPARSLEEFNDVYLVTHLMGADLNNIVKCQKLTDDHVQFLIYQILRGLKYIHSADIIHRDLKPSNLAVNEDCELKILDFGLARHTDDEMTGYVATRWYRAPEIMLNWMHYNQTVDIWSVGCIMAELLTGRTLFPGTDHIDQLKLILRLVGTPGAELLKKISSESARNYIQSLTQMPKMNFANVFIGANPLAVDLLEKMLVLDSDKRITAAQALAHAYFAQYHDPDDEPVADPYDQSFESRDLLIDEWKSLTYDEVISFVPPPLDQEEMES

SMILES	biochemical net response rate [1]	patients responsive to treatment [2]	IC50 (p38MAPKα)
NC(=O)c1ccc(N(C(N)=O)c2c(F)cccc2F)nc1-c1ccc(F)cc1F [VX-702]	about 28%	approximately 40%	
Fc1ccc(-c2nc3occn3c2-c2ccnc(NC3CC3)n2)cc1 [4-(4-fluorophenyl)-5-(2-[cyclopropyl-amino]-pyrimidyl-4-yl)-imidazooxazole]			0.44 nM
